Experimental data published in patent US12258337B2, “Bicyclic CX3CR1 receptor agonists” (Board of Regents, The University of Texas System, priority 2019, dated 2025).
Each block holds one molecule with its values, some of them ahead of it.

Legend:
Assay type in all cases: cell-based
mCX3CR1 = target: T1, mCX3CR1 (Mus musculus, UniProt Q9Z0D9); test: Ga16 assay, CX3CR1 agonism, Ca2+ sensitive photo-protein readout (FLIPRTETRA); conditions: mouse CX3CR1 cell line
T1 construct: expressed in transfected cells; stably expresses a Ca2+ sensitive photo-protein
T1 sequence (Q9Z0D9 1-354): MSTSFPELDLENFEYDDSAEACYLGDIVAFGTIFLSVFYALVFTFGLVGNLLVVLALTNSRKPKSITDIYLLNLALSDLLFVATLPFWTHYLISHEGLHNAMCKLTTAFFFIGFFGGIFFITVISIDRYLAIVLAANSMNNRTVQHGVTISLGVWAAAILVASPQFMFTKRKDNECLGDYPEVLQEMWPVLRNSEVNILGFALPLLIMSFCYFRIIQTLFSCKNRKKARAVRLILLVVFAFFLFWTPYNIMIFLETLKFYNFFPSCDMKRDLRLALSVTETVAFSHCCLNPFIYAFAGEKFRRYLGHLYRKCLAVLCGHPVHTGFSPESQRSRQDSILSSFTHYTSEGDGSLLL
Procedure, shortened: (§1)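 Cells expressing human, mouse or rat CX3CR1 with a stably expressed Ca2+-sensitive photoprotein were loaded with 10 μM coelenterazine in tyrode buffer pH 7.4 for 3 h at room temperature. Agonist-mode luminescence kinetics were recorded for 90 s after compound injection on FLIPRTETRA. Dose-response runs were done in quadruplicate, with fractalkine as the reference agonist.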

rCX3CR1 = target: T2, rCX3CR1 (Rattus norvegicus, UniProt P35411); test: as above; conditions: rat CX3CR1 cell line
T2 construct: expressed in transfected cells; stably expresses a Ca2+ sensitive photo-protein
T2 sequence (P35411 1-354): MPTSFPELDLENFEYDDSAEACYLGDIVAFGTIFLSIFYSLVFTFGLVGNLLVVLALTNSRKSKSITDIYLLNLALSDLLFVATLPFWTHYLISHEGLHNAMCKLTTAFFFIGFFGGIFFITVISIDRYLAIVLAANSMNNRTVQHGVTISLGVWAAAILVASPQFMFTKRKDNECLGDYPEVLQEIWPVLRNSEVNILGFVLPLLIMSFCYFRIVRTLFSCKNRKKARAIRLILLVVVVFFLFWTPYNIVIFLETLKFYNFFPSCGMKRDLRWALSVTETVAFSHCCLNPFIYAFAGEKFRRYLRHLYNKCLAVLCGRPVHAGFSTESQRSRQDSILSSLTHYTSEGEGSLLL
Procedure, shortened: as §1

hCX3CR1 [1] = target: T3, hCX3CR1 (Homo sapiens, UniProt P49238); test: as above; design: expressed in transfected cells; stably expresses a Ca2+ sensitive photo-protein; conditions: human CX3CR1 cell line
T3 sequence (P49238 1-355): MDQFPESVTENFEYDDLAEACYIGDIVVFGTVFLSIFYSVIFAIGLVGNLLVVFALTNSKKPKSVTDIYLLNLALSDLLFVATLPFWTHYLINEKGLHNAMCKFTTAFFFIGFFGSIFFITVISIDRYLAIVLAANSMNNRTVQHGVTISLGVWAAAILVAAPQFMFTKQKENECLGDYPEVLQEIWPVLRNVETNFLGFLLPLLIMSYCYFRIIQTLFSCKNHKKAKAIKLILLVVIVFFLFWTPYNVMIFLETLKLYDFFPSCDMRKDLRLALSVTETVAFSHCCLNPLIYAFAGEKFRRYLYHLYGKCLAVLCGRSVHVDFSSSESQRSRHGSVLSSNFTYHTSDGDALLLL
Procedure, shortened: as §1

hCX3CR1 [2] = target: T3, hCX3CR1; test: ChAMPion assay (CHO ChAMPion/CX3CR1 K1.6, cAMP/CNG channel, photoprotein luminescence); design: expressed in transfected cells; stably expresses a Ca2+ sensitive photo-protein; conditions: ChAMPion assay, CHO ChAMPion/CX3CR1 K1.6, Forskolin 3 μM; read-out: hCX3CR1 agonism EC50
Method: Buffers and reagents. PBS (D-PBS without calcium and magnesium; EuroClone); Trypsin (Trypsin 0.05%, EDTA 0.02% in PBS; EuroClone); DMSO (Sigma); Tyrode buffer Ca^2+ free: in-house solution (130 mM NaCl, 5 mM KCl, 1 mM MgCl^2, 5 mM NaHCO3, 20 mM HEPES (pH 7.4); sterile filtered and autoclaved); Tyrode buffer 10 mM Ca^2+: in-house solution (130 mM NaCl, 5 mM KCl, 10 mM CaCl2), 1 mM MgCl2, 5 mM NaHCO3, 20 mM HEPES, in water at pH 7.4, sterile filtered); Coelenterazine, native (Biosynth); stock 10 mM; Agonist: Recombinant Human Fractalkine (CX3CL1) (PeproTech); stock: 10 μM in standard Tyrode buffer/BSA 01%; stored at −20° C.
Cell line. The final clone for the hCX3CR1 assay was CHO ChAMPion/CX3CR1 K1.6. ChAMPion technology is based on the co-expression of a Ca^2+ sensitive photoprotein and of a cyclic nucleotide-gated (CNG) channel acting as a cAMP biosensor in a CHO-K1 cell line. CNG channels are non-selective ligand gated cation channels that can be opened by the direct interaction with either cAMP or cGMP, at the intracellular C-terminus site of the channel. Channel opening allows the flux of extracellular calcium into the cell cytoplasm and its transient elevation can be recorded by means of several different calcium indicators. In the chAMPion system, the CNG channel has been modified to display sensitivity to cAMP levels in the physiological range. In addition the calcium influx through the opened channel is immediately detected by the recording of the photoprotein-emitted flash type luminescence signal.
The chAMPion cell line system can monitor the activation of transfected Gαi-coupled receptors, which elicit changes in 3,‘5’-adenosine cyclic monophosphate (cAMP) levels, which in turn is responsible for CNG opening and consequent Ca^2+ influx.
Assay protocol. Experiments were performed in 384 MTP format. Cells were seeded at 10,000 cells/well in 25 μL/well complete growth medium without selection antibiotics in 384-well plates. Twenty-four hours later, cells were assayed for the response to various compounds using the Ca^2+ sensitive photo-protein stably expressed in the cells as readout.
The experiment was performed in a 384-well format according to the following procedure: • 24h after seeding, pre-incubate the cells at room temperature for 1 hour. • Then remove the culture medium. • Load cells with 20 μL/well of Ca^2+ free tyrode buffer+ceolenterazine 5 μM. • Incubate cell plates for 4 hours at RT. • 10 μl/well of 3× concentrated compounds in Ca^2+ free tyrode buffer+Forskolin 9 μM (final Forskolin concentration=3 μM) are applied to the cells (at 10 μl/s). Ten minutes later a second injection is performed: 10 μl/well of Ca^2+ free tyrode buffer+BSA 0.04% (final BSA concentration=0.01%). Twenty minutes later a third injection is performed: 20 μl/well of 10 mM Ca^2+ tyrode buffer (final Ca^2+ concentration was 3.3 mM) and luminescence is recorded for 90 seconds.
Data from FLIPRTETRA measurements are analyzed with the Genedata Screener© software.

primary human monocytes = test: Chemotaxis assay, transwell migration of primary human monocytes; conditions: 4 hours, CellTiter-Glo, FIG. 2
Method: Primary Human Monocytes Migrate Along a Chemotactic Gradient towards CX3CR1 Agonists
The chemotaxis assay assesses the CX3CR1-dependent migration of primary human monocytes towards fractalkine and active CX3CR1 agonists. To determine the migration index, monocytes were positively selected from freshly isolated human PBMCs and seeded at 50,000 cells per insert, on the upper chamber of a transwell plate with a pore size of 5 μm. […] Monocytes were allowed to migrate for 4 hours, and subsequently detected in the lower chamber with the CellTiter-Glo Assay, which measures metabolically active cells.

Molecule: CCCN(C)CC1(CNC(=O)c2cc3c(s2)CCCCCC3)CCCC1 [Example 6, N-[[1-[[methyl(propyl)amino]methyl]cyclopentyl]methyl]-4,5,6,7,8,9-hexahydrocycloocta[b]thiophene-2-carboxamide]
EC50 (mCX3CR1): 18.1 µM
EC50 (rCX3CR1): 14.6 µM
EC50 (hCX3CR1 [1]): 15.1 µM
EC50 (hCX3CR1 [2]): 4.5 µM

Molecule: CC(C)(CNC(=O)c1cc2c(s1)CCCCCCC2)CN1CCCC1 [Example 24, N-(2,2-dimethyl-3-pyrrolidin-1-ylpropyl)-5,6,7,8,9,10-hexahydro-4H-cyclonona[b]thiophene-2-carboxamide]
EC50 (mCX3CR1): 50.9 µM
EC50 (rCX3CR1): 59.9 µM
EC50 (hCX3CR1 [1]): 24.6 µM
EC50 (hCX3CR1 [2]): 10.6 µM

Molecule: CN(CCO)CC1(CNC(=O)c2cc3c(s2)CCCCC3)CCCC1 [Example 34, N-[[1-[[2-hydroxyethyl(methyl)amino]methyl]cyclopentyl]methyl]-5,6,7,8-tetrahydro-4H-cyclohepta[b]thiophene-2-carboxamide]
EC50 (mCX3CR1): 46.9 µM
EC50 (rCX3CR1): 12.9 µM
EC50 (hCX3CR1 [1]): 13.7 µM
EC50 (hCX3CR1 [2]): 36.5 µM

B1: fractalkine: recombinant human fractalkine (CX3CL1), large membrane-anchored or secreted cytokine, ligand of CX3CR1 (protein, UniProt P78423 25-397, looked up)
Fractalkine: QHHGVTKCNITCSKMTSKIPVALLIHYQQNQASCGKRAIILETRQHRLFCADPKEQWVKDAMQHLDRQAAALTRNGGTFEKQIGEVKPRTTPAAGGMDESVVLEPEATGESSSLEPTPSSQEAQRALGTSPELPTGVTGSSGTRLPPTPKAQDGGPVGTELFRVPPVSTAATWQSSAPHQPGPSLWAEAKTSEAPSTQDPSTQASTASSPAPEENAPSEGQRVWGQGQSPRPENSLEREEMGPVPAHTDAFQDWGPGSMAHVSVVPVSSEGTPSREPVASGSWTPKAEEPIHATMDPQRLGVLITPVPDAQAATRRQAVGLLAFLGLLFCLGVAMFTYQSLQGCPRKMAGEMAEGLRYIPRSCGSNSYVLVPV
migration of primary human monocytes towards substance (chemotaxis) (primary human monocytes): monocytes migrated towards fractalkine

The remaining lines, values ahead:

EC50 (mCX3CR1): 15.1 µM
EC50 (rCX3CR1): 13.7 µM
EC50 (hCX3CR1 [1]): 11.5 µM
EC50 (hCX3CR1 [2]): 1.3 µM
Molecule: CN(C)CC1(CNC(=O)c2cc3c(s2)CCCCCC3)CCCCC1 [Example 22, N-[[1-[(dimethylamino)methyl]cyclohexyl]methyl]-4,5,6,7,8,9-hexahydrocycloocta[b]thiophene-2-carboxamide]

EC50 (mCX3CR1): 33.6 µM
EC50 (rCX3CR1): 20.4 µM
EC50 (hCX3CR1 [1]): 18 µM
EC50 (hCX3CR1 [2]): 5.5 µM
Molecule: O=C(NCC1(CN2C[C@H]3CCO[C@@H]3C2)CCCC1)c1cc2c(s1)CCCCCC2 [Example 69, N-[[1-[[(3aR,6aS)-2,3,3a,4,6,6a-hexahydrofuro[2,3-c]pyrrol-5-yl]methyl]cyclopentyl]methyl]-4,5,6,7,8,9-hexahydrocycloocta[b]thiophene-2-carboxamide]

EC50 (mCX3CR1): 24.9 µM
EC50 (rCX3CR1): 23.7 µM
EC50 (hCX3CR1 [1]): 11 µM
EC50 (hCX3CR1 [2]): 0.94 µM
Molecule: O=C(NCC1(CN2CCCC2)CCCCC1)c1cc2c(s1)CCCCCC2 [Example 18, N-[[1-(pyrrolidin-1-ylmethyl)cyclohexyl]methyl]-4,5,6,7,8,9-hexahydrocycloocta[b]thiophene-2-carboxamide]
